Numbers after ± are expanded uncertainties.
Assay: refractive index (Na D-line) (dimensionless); xn = mol fraction of the nth substance listed
Settings: 101 kPa, Liquid, Standard Abbe refractometry

C=CC(C)(O)CCC=C(C)C (stereo not drawn) [3,7-dimethyl-1,6-octadien-3-ol] + CCCO
refractive index
Settings | 283.15 K | 298.15 K | 313.15 K | 328.15 K
x1 = 0.0533 | 1.39881 ± 0.00032 | 1.39255 ± 0.00033 | 1.38616 ± 0.00033 | 1.3796 ± 0.00033
x1 = 0.1051 | 1.40707 ± 0.00033 | 1.40075 ± 0.00033 | 1.39427 ± 0.00033 | 1.38756 ± 0.00033
x1 = 0.2014 | 1.41983 ± 0.00033 | 1.41337 ± 0.00034 | 1.40675 ± 0.00034 | 1.39986 ± 0.00034
x1 = 0.3032 | 1.43049 ± 0.00035 | – | – | –
x1 = 0.3049 | – | 1.42409 ± 0.00035 | 1.41728 ± 0.00035 | 1.41023 ± 0.00035
x1 = 0.3869 | 1.43761 ± 0.00036 | 1.43088 ± 0.00036 | 1.42395 ± 0.00036 | 1.41687 ± 0.00036
x1 = 0.4929 | – | – | – | 1.42395 ± 0.00038
x1 = 0.4951 | 1.44504 ± 0.00038 | 1.4382 ± 0.00038 | 1.43113 ± 0.00038 | –
x1 = 0.5917 | 1.45054 ± 0.0004 | 1.44367 ± 0.0004 | 1.43657 ± 0.0004 | 1.42935 ± 0.0004
x1 = 0.6895 | 1.45535 ± 0.00042 | 1.4484 ± 0.00042 | 1.44114 ± 0.00042 | 1.4339 ± 0.00042
x1 = 0.767 | – | – | – | 1.4371 ± 0.00044
x1 = 0.7765 | 1.45896 ± 0.00044 | 1.45193 ± 0.00044 | 1.44473 ± 0.00044 | –
x1 = 0.8735 | 1.46254 ± 0.00047 | 1.45549 ± 0.00047 | 1.44824 ± 0.00047 | 1.44085 ± 0.00047
x1 = 0.9296 | 1.46441 ± 0.00048 | 1.4573 ± 0.00048 | 1.44997 ± 0.00048 | 1.44249 ± 0.00048
x1 = 1 | 1.4666 ± 0.0005 | 1.45946 ± 0.0005 | 1.45215 ± 0.0005 | 1.44473 ± 0.0005
